The results in this text go back to PubChem BioAssay AID328 (DTP/NCI, 2004).

The test system of the assay is BDF1 mice, P388 leukemia ip, median survival T/C. Put plainly: NCI In Vivo Anticancer Drug Screen. Data for tumor model P388 Leukemia (intraperitoneal) in B6D2F1 (BDF1) mice. As to conditions: endpoint: median survival time, higher = longer survival. Summed up: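 Transplantable tumour in mice; compound vs vehicle dosing; survival scored; ratio of treated to control reported.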

Setting [1] is: dose: 25.0 mg/kg/injection, schedule: Q01DX009 (ip), vehicle: saline.
Setting [2] is: dose: 6.25 mg/kg/injection, schedule: Q01DX009 (ip), vehicle: saline with Tween-80.
The mark [3] stands for this setting: dose: 12.5 mg/kg/injection, schedule: Q01DX009 (ip), vehicle: saline with Tween-80.
[4] abbreviates: dose: 100.0 mg/kg/injection, schedule: Q01DX009 (ip), vehicle: saline with Tween-80.
The mark [5] stands for this setting: dose: 200.0 mg/kg/injection, schedule: Q01DX009 (ip), vehicle: saline with Tween-80.
[6] abbreviates: dose: 25.0 mg/kg/injection, schedule: Q01DX009 (ip), vehicle: saline with Tween-80.
[7] abbreviates: dose: 50.0 mg/kg/injection, schedule: Q01DX009 (ip), vehicle: saline with Tween-80.
[8] abbreviates: dose: 100.0 mg/kg/injection, schedule: Q04DX003 (ip), vehicle: saline with Tween-80.
[9] abbreviates: dose: 50.0 mg/kg/injection, schedule: Q04DX003 (ip), vehicle: Klucel (hydroxypropylcellulose) (HPC).
The mark [10] stands for this setting: dose: 100.0 mg/kg/injection, schedule: Q04DX003 (ip), vehicle: Klucel (hydroxypropylcellulose) (HPC).

Each structure is given as a SMILES string. Several values for one entry are separate records, joined by “and”; a condition that tells them apart may be missing. Equal values may be shown once. Inconclusive results and toxic doses are left out.

For `C1=CC=CCC=C1`, the T/C is 100 % of control (dose: 12.5 mg/kg/injection, schedule: Q04DX003 (ip), vehicle: saline); 150 % of control under setting [1]; 113 % of control (dose: 25.0 mg/kg/injection, schedule: Q04DX003 (ip), vehicle: saline); 111 % of control (dose: 50.0 mg/kg/injection, schedule: Q01DX009 (ip), vehicle: saline); 109 % of control (dose: 50.0 mg/kg/injection, schedule: Q04DX003 (ip), vehicle: saline).
With `O=[N+]([O-])C=C1CCCCC1`, the T/C reads like this: (dose: 25.0 mg/kg/injection, schedule: Q01DX001 (ip), vehicle: saline with Tween-80) 113 % of control; (dose: 50.0 mg/kg/injection, schedule: Q01DX001 (ip), vehicle: saline with Tween-80) 118 % of control; (dose: 100.0 mg/kg/injection, schedule: Q01DX001 (ip), vehicle: saline with Tween-80) 113 % of control.
As to `O=C1C2CC=CCC2C(=O)N1SC(Cl)(Cl)Cl` (stereo unspecified), the T/C under setting [2] was 120 % of control and the T/C under setting [3] is 120 % of control.
For `Cc1c(N)nc(C(CC(N)=O)NCC(N)C(N)=O)nc1C(=O)NC(C(=O)NC(C)C(O)C(C)C(=O)NC(C(=O)NCCc1nc(-c2nc(C(=O)NCCC[S+](C)C)cs2)cs1)C(C)O)C(OC1OC(CO)C(O)C(O)C1OC1OC(CO)C(O)C(OC(N)=O)C1O)c1cnc[nH]1` (stereo unspecified), the T/C is, setting by setting: (dose: 0.5 mg/kg/injection, schedule: Q01DX009 (ip), vehicle: saline) 115 % of control; (dose: 1.0 mg/kg/injection, schedule: Q01DX009 (ip), vehicle: saline) 115 % of control and 116 % of control; (dose: 2.0 mg/kg/injection, schedule: Q01DX009 (ip), vehicle: saline) 120 % of control; (dose: 8.0 mg/kg/injection, schedule: Q01DX009 (ip), vehicle: saline) 163 % of control; (dose: 16.0 mg/kg/injection, schedule: Q01DX009 (ip), vehicle: saline) 90 % of control and 93 % of control and 118 % of control; (dose: 32.0 mg/kg/injection, schedule: Q01DX009 (ip), vehicle: saline) 100 % of control.
For the molecule `OCC(O)C(O)C(O)C(O)C(O)c1nc2ccccc2[nH]1` (stereo unspecified), the T/C under setting [4] was 100 % of control; the T/C under setting [5] was 91 % of control; the T/C (dose: 400.0 mg/kg/injection, schedule: Q01DX009 (ip), vehicle: saline with Tween-80) was 93 % of control.
In the case of `COCn1cc(C(N)=O)c(=O)c2c(N)nc(SC)nc21`, the T/C (dose: 100.0 mg/kg/injection, schedule: Q04DX002 (ip), vehicle: saline with Tween-80) is 90 % of control and the T/C (dose: 400.0 mg/kg/injection, schedule: Q04DX002 (ip), vehicle: saline with Tween-80) was 96 % of control.
For `OCCOc1c(Cl)c(Cl)c(Cl)c(Cl)c1Cl`, the T/C under setting [6] is 100 % of control; the T/C under setting [7] was 104 % of control; the T/C (dose: 50.0 mg/kg/injection, schedule: Q04DX003 (ip), vehicle: saline with Tween-80) was 100 % of control; the T/C under setting [4] is 118 % of control; the T/C under setting [8] is 100 % of control.
Consider `O=C(NO)c1ccccc1`, for which the T/C reads like this: (dose: 50.0 mg/kg/injection, schedule: Q01DX009 (ip), vehicle: Klucel (hydroxypropylcellulose) (HPC)) 105 % of control and 116 % of control; under setting [9], 103 % of control and 116 % of control; (dose: 100.0 mg/kg/injection, schedule: Q01DX009 (ip), vehicle: Klucel (hydroxypropylcellulose) (HPC)) 91 % of control and 104 % of control and 105 % of control; under setting [10], 106 % of control and 108 % of control and 113 % of control; (dose: 200.0 mg/kg/injection, schedule: Q01DX009 (ip), vehicle: Klucel (hydroxypropylcellulose) (HPC)) 107 % of control and 109 % of control; (dose: 200.0 mg/kg/injection, schedule: Q04DX003 (ip), vehicle: Klucel (hydroxypropylcellulose) (HPC)) 104 % of control (2×) and 108 % of control. Moreover, the T/C (dose: 400.0 mg/kg/injection, schedule: Q04DX003 (ip), vehicle: Klucel (hydroxypropylcellulose) (HPC)) is 100 % of control and 116 % of control.
`[O-][n+]1c(/C=C/c2cccc3ccccc23)cccc1/C=C/c1cccc2ccccc12`: the T/C (dose: 50.0 mg/kg/injection, schedule: Q01DX005 (ip), vehicle: saline + Tween-80 + alcohol) was 94 % of control; the T/C (dose: 100.0 mg/kg/injection, schedule: Q01DX005 (ip), vehicle: saline + Tween-80 + alcohol) was 96 % of control; the T/C (dose: 200.0 mg/kg/injection, schedule: Q01DX005 (ip), vehicle: saline + Tween-80 + alcohol) is 96 % of control.
Turning to `N#Cc1ccccc1CC(O)(c1ccccc1)c1ccccn1` (stereo unspecified), the T/C under setting [7] is 100 % of control, the T/C under setting [4] is 103 % of control and the T/C under setting [5] was 115 % of control.
For `C(=C/c1nc2ccccc2o1)/c1ccc2c(c1)OCO2`, the T/C was 102 % of control (dose: 50.0 mg/kg/injection, schedule: Q01DX011 (ip), vehicle: Klucel (hydroxypropylcellulose) (HPC)); 100 % of control (dose: 100.0 mg/kg/injection, schedule: Q01DX001 (ip), vehicle: Klucel (hydroxypropylcellulose) (HPC)); 99 % of control (dose: 100.0 mg/kg/injection, schedule: Q01DX011 (ip), vehicle: Klucel (hydroxypropylcellulose) (HPC)); 86 % of control (dose: 200.0 mg/kg/injection, schedule: Q01DX001 (ip), vehicle: Klucel (hydroxypropylcellulose) (HPC)); 100 % of control (dose: 200.0 mg/kg/injection, schedule: Q01DX011 (ip), vehicle: Klucel (hydroxypropylcellulose) (HPC)); 94 % of control (dose: 400.0 mg/kg/injection, schedule: Q01DX001 (ip), vehicle: Klucel (hydroxypropylcellulose) (HPC)).
Take `NC(=O)CCC(N)C(=O)O.[Cl-].[Cl-].[Cl-].[Cl-].[Pt+2]` (stereo unspecified): the T/C is 106 % of control (dose: 1.56 mg/kg/injection, schedule: Q01DX009 (ip), vehicle: saline); 107 % of control (dose: 3.13 mg/kg/injection, schedule: Q01DX009 (ip), vehicle: saline); 124 % of control (dose: 6.25 mg/kg/injection, schedule: Q01DX009 (ip), vehicle: saline); 153 % of control (dose: 12.5 mg/kg/injection, schedule: Q01DX009 (ip), vehicle: saline); 172 % of control under setting [1].
Take `CCCCCCCCCCCCCCCCCCNC(=S)N/N=C/c1ccc(Cl)cc1Cl`: the T/C by setting is: under setting [9], 105 % of control; under setting [10], 90 % of control; under setting [8], 100 % of control; (dose: 200.0 mg/kg/injection, schedule: Q04DX003 (ip), vehicle: saline with Tween-80) 100 % of control; (dose: 400.0 mg/kg/injection, schedule: Q04DX003 (ip), vehicle: saline with Tween-80) 100 % of control.
Regarding `CCN=C(N)N=C(N)N`, for the setting “dose: 100.0 mg/kg/injection, schedule: Q01DX001 (ip), vehicle: saline”, the T/C is 102 % of control.
On to `C=CCNC(=S)N/N=C\c1cc(OC)c(OC)c(OC)c1`, for which the T/C by setting is: under setting [7], 95 % of control; under setting [4], 100 % of control; under setting [5], 90 % of control.
As for `CC1(c2ccc(Cl)s2)C(=O)N(Cl)C(=O)N1Cl` (stereo unspecified), the T/C was 112 % of control under setting [2]; 103 % of control and 106 % of control under setting [3]; 106 % of control and 110 % of control under setting [6]; 108 % of control (dose: 25.0 mg/kg/injection, schedule: Q04DX003 (ip), vehicle: water); 104 % of control and 120 % of control (2×) under setting [7]; 95 % of control (dose: 50.0 mg/kg/injection, schedule: Q04DX003 (ip), vehicle: water). Besides, the T/C is 95 % of control and 115 % of control under setting [4]; 102 % of control (dose: 100.0 mg/kg/injection, schedule: Q04DX003 (ip), vehicle: water).
Regarding `Clc1ccc2c(c1)nnn2OC1CCCCCC1`, the T/C reads like this: under setting [7], 101 % of control; under setting [4], 97 % of control; under setting [5], 108 % of control.
Consider `CSc1ccc(NC(=O)CCl)cc1`, for which the T/C by setting is: under setting [3], 107 % of control; under setting [6], 105 % of control; under setting [7], 106 % of control.
For the molecule `CC1CCC2N(C1)CC1C(C(O)C(O)C3(O)C1CC14OC5(O)C(O)CCC1(C)C5CC(O)C34)C2(C)O` (stereo unspecified), the T/C (dose: 25.0 mg/kg/injection, schedule: Q01DX010 (ip), vehicle: carboxymethylcellulose (CMC)) is 100 % of control; the T/C (dose: 50.0 mg/kg/injection, schedule: Q01DX010 (ip), vehicle: carboxymethylcellulose (CMC)) is 115 % of control; the T/C (dose: 100.0 mg/kg/injection, schedule: Q01DX010 (ip), vehicle: carboxymethylcellulose (CMC)) was 110 % of control.
